Values quoted from earlier work, collected in patent publication US20040122104A1 (Collegium Pharmaceutical, Inc., priority 2002, published 2004).
Read-outs that look alike come from different tables or passages of the source.

How the values were obtained:
[1] = not given; remark: listed apart in the source
[2] = 75-100 mg/day twice daily for 8 weeks, 219 elderly patients
[3] = compared with SSRIs and tricyclic antidepressants
[4] = approximately 400,000 patients
[5] = intravenous, of 10 patients
[6] = in vivo

| Compound | metabolites as share of the concentration of the parent drug (liver metabolism) | number of chemically identified metabolites (liver metabolism) | time in which oral doses are absorbed and extensively distributed in the body (oral) [h] | global pain score, mean value ([1]; 1-7 scale (1 very much improved, 4 unchanged, 7 very much worse), patients who reached endpoint) | participants who failed the dose escalation ([1]; BID-IR group (twice daily immediate release)) [%] | participants who failed the dose escalation ([1]; QD-IR group (once daily immediate release)) [%] | only adverse event reported more frequently than for imipramine recipients [2] | disturbances of REM sleep [3] | toxicity in humans [4] | patients reporting transient nausea [5] | top three adverse events associated with discontinuation of treatment [6] |
| --- | --- | --- | --- | --- | --- | --- | --- | --- | --- | --- | --- |
| CCN(CC)C(=O)C1(c2ccccc2)CC1CN (centres unmarked) [milnacipran, Milnacipran] | about 10% | ten | 1 to 2 | 2.3 | 6 | 19 | nausea | only minor disturbances | non-toxic | five | – |
| CN[C@H]1CC[C@@H](c2ccc(Cl)c(Cl)c2)c2ccccc21 [sertraline] | – | – | – | – | – | – | – | – | – | – | nausea, insomnia, and diarrhea |
